Assay [1] in a line: Inhibition of tRNA-guanine transglycosylase (unknown origin) assessed as Gibbs free enthalpy at 25 degC at 200 to 300 uM by isothermal titration calorimetry.
The nature of assay [2]: Inhibition of tRNA-guanine transglycosylase (unknown origin) assessed as entropy at 25 degC at 200 to 300 uM by isothermal titration calorimetry. On the technique in general: Isothermal titration calorimetry measures the heat released or taken up as one component is titrated into another.
A short description of assay [3]: Inhibition of tRNA-guanine transglycosylase (unknown origin) assessed as buffer-corrected enthalpy values at 25 degC at 200 to 300 uM by isothermal titration calorimetry.

On to `CNc1nc2cc3c(=O)[nH]c(N)nc3cc2[nH]1`, for which the deltaG in assay [1] is -9.94 kcal/mol. In assay [2], the -TdeltaS was found to be 13.3 kcal/mol. For the same compound, the deltaH in assay [3] is -23.3 kcal/mol.
For `Nc1nc2cc3[nH]c(NCCN4CCCCC4)nc3cc2c(=O)[nH]1`, the deltaG in assay [1] is -10.2 kcal/mol. For the same compound, in assay [2], the -TdeltaS worked out at 8.68 kcal/mol. Also, the deltaH in assay [3] was -18.9 kcal/mol.
For `O=c1[nH]cnc2cc3[nH]c(NCCN4CCCCC4)nc3cc12`, the deltaG in assay [1] was -8.72 kcal/mol. In assay [2], the -TdeltaS amounted to 3.37 kcal/mol. Besides, the deltaH in assay [3] was -12.1 kcal/mol.
As to `Nc1nc2cc3nc(NCc4cccs4)[nH]c3cc2c(=O)[nH]1`, the deltaG in assay [1] was -9.49 kcal/mol. Also, the -TdeltaS in assay [2] worked out at 6.36 kcal/mol. Besides, the deltaH in assay [3] was -15.8 kcal/mol.
As for `O=c1[nH]cnc2cc3nc(NCc4cccs4)[nH]c3cc12`, the deltaG in assay [1] is -7.89 kcal/mol. The -TdeltaS in assay [2] was found to be 2.17 kcal/mol. Moreover, the deltaH in assay [3] is -10.1 kcal/mol.
For the compound `CNc1nc2cc3c(=O)[nH]cnc3cc2[nH]1`, the deltaG in assay [1] was -8.72 kcal/mol. The -TdeltaS in assay [2] is 2.68 kcal/mol. Also, in assay [3], the deltaH is -11.4 kcal/mol.
Regarding `Nc1nc2cc3[nH]c(NCCN4CCOCC4)nc3cc2c(=O)[nH]1`, in assay [1], the deltaG is -10.2 kcal/mol. The -TdeltaS in assay [2] amounted to 12.9 kcal/mol. Moreover, the deltaH in assay [3] was -23 kcal/mol.
Consider `O=c1[nH]cnc2cc3nc(NCCN4CCOCC4)[nH]c3cc12`, for which the deltaG in assay [1] is -8.77 kcal/mol. Besides, the -TdeltaS in assay [2] turned out to be 2.92 kcal/mol. Moreover, in assay [3], the deltaH was -11.7 kcal/mol.
